The Emax is the size of the effect at its maximum, as opposed to the concentration needed. The EC50 is the concentration giving half of the maximal effect. Read a high EC50 as weaker potency. As a reminder, the Ki is a measure of affinity in units of concentration, obtained from inhibition or displacement. Lower therefore signals a stronger hold on the target.

Consider four compounds from article PMC3869807 (PLoS ONE, 2013).

“And” between values parts separate entries of the source, which are not always exact repeats. Identical values can stand only once.

Assay [1] deals with T1, µ-opioid receptor (Homo sapiens, UniProt P35372). Put plainly: biochemical. Also on record: host or cells: U2OS (membrane preparation).
T1 sequence (P35372 whole entry): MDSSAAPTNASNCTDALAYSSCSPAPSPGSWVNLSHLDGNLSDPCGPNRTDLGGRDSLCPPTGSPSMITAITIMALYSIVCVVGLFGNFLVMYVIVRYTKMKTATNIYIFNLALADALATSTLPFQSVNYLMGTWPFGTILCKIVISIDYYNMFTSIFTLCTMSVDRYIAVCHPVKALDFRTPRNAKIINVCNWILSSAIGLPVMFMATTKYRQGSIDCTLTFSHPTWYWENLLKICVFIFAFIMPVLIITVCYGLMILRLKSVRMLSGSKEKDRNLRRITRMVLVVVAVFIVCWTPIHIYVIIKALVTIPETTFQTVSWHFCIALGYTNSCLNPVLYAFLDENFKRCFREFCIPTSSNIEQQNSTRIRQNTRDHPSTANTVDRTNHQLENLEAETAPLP
For assay [2], the target named is T1, µ-opioid receptor. Put plainly: biochemical. Format: binding. Set-up: host or cells: U2OS (membrane preparation).
Assay [3] deals with T1, µ-opioid receptor. Put plainly: cell-based. Format: cell-based. Set-up: host or cells: U2OS.
Assay [4] deals with T1, µ-opioid receptor. As to the kind of experiment: biochemical. It counts as binding. Also on record: host or cells: U2OS (membrane preparation). The source holds these as a separate data set.

With `CC(=O)N[C@@H](Cc1ccccc1)C(=O)NCC(C)(C)NC(=O)[C@@H](N)Cc1ccc(O)cc1.Cl` [Pfizer comp 1, 2-(L-Tyrosylamino)-1-[(N-acetyl-L-phenylalanyl)-amino]-2-methylpropane hydrochloride], the maximal response (Emax) on µ-opioid receptor [1] was 103% and 100±4%; at µ-opioid receptor [3], 99±8%; on µ-opioid receptor [3] (U2OS), 106 ± 4%. Moreover, the concentration giving a half-maximal response (EC50) at µ-opioid receptor [1] (EC50) was 219 pM and 170 pM; on µ-opioid receptor [3] (β-fun 1 nM EC50) it was 1380 pM; at µ-opioid receptor [3] (β-fun 10 nM EC50), 2240 pM. In addition, the inhibitory constant (Ki) is 51.3 pM on µ-opioid receptor [2] (GRK2 moi 5 KH), 47.9 pM on µ-opioid receptor [2] (Untransduced KH), 21900 pM at µ-opioid receptor [4] (GRK2 moi 5 KL) and 42700 pM on µ-opioid receptor [4] (Untransduced KL). Moreover, the “β-arrestin recruitment that was PTX sensitive” value on µ-opioid receptor [3] is listed as 60–70%.

Regarding `NC(=O)[C@H](Cc1ccccc1)NC(=O)[C@H](Cc1ccccc1)NC(=O)[C@@H]1CCCN1C(=O)[C@@H](N)Cc1ccc(O)cc1` [Endomorphin 2, endomorphin 2], the Emax was 104% and 101±2% on µ-opioid receptor [1]; 74±4% on µ-opioid receptor [3]; 69 ± 3% at µ-opioid receptor [3] (U2OS).

Consider `C[C@@H](NC(=O)[C@@H](N)Cc1ccc(O)cc1)C(=O)NCC(=O)N(C)[C@@H](Cc1ccccc1)C(=O)NCCO` [DAMGO, [D-Ala^2, MePhe^4, gly^5 –ol]-enkephalin], for which the “β-arrestin recruitment that was PTX sensitive” value at µ-opioid receptor [3] is on record as 60–70%.

As for `COc1ccc2c3c1O[C@H]1C(=O)CC[C@@]4(O)[C@@H](C2)N(C)CC[C@]314` [Oxycodone, oxycodone], at µ-opioid receptor [1], the Emax is 95% and 104±2%. In addition, the “β-arrestin recruitment that was PTX sensitive” value on µ-opioid receptor [3] is recorded as 60–70%.
